This note sets out measurements from BindingDB's records for doi:10.1021/acs.jmedchem.7b00782 (Jadavpur University, 2018).

This experiment is described as follows: Inhibition of LAP (unknown origin).

In general, Ki refers to the dissociation constant of the complex between target and ligand, obtained from inhibition or displacement. Read a low Ki as a stronger hold on the target.

As for `CC(C)CC(N)P(=O)(O)C(=O)N[C@H](CC(C)C)C(=O)O` (some centres undefined), the Ki is 56 µM.
For the molecule `CC1(C)OB(C(N)Cc2ccccc2)OC1(C)C` (centres undefined), the Ki came out at 0.05 µM.
`CC(C)CC(N)B1OC(C)(C)C(C)(C)O1` (centres undefined) had a Ki of 1.3 µM.
Regarding `CC(N)B1OC(C)(C)C(C)(C)O1` (centres undefined), affinity was put at a Ki of 90 µM.
